Experimental data taken from the supplement of paper PMC10307832.

Experiments:
Assay in all cases: relative viability (nuclei count vs DMSO), 5 days (fraction); higher = more cells survive
[1] = compound: C1CC(C2=C(C1)C3=C(N2)C=CC(=C3)Cl)C(=O)N [Selisistat] + CS(=O)(=O)CCNCc1ccc(-c2ccc3ncnc(Nc4ccc(OCc5cccc(F)c5)c(Cl)c4)c3c2)o1 [Lapatinib] (partner 2 µM)
Outline: (§1)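 Lung cancer cell lines, seeded in 1536-well plates, were treated the following day by pin tool with a single drug or with five library-drug doses (not always all listed) in √10 steps on top of a fixed anchor-drug dose. Cells were fixed and nuclei stained in one step after 5 days, and nuclei were counted. Relative viability is the nuclei count for treated wells divided by that for vehicle wells, reported as medians of duplicate plates.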

[2] = compound: c1ccc2c(CCNc3ccc(Nc4ccncc4)cc3)c[nH]c2c1 [Serdemetan] + Cc1cc(Nc2cc(N3CCN(C)CC3)nc(Sc3ccc(NC(=O)C4CC4)cc3)n2)n[nH]1 [Tozasertib] (partner 0.1 µM)
Outline: as §1

[3] = compound: C1CC(C2=C(C1)C3=C(N2)C=CC(=C3)Cl)C(=O)N [Selisistat] + O=C(c1cc(Cc2n[nH]c(=O)c3ccccc23)ccc1F)N1CCN(C(=O)C2CC2)CC1 [Olaparib] (partner 8 µM)
Outline: as §1

[4] = compound: c1ccc2c(CCNc3ccc(Nc4ccncc4)cc3)c[nH]c2c1 [Serdemetan] + Nc1ncn([C@H]2C[C@H](O)[C@@H](CO)O2)c(=O)n1 [Decitabine] (partner 2 µM)
Outline: as §1

Cell Line	relative viability ([1]; first compound 0.4 µM)	relative viability ([1]; first compound 1.265 µM)	relative viability ([1]; first compound 4 µM)	relative viability ([1]; first compound 12.65 µM)	relative viability ([1]; first compound 40 µM)	relative viability ([2]; first compound 0.04 µM)	relative viability ([2]; first compound 0.1265 µM)	relative viability ([2]; first compound 0.4 µM)	relative viability ([2]; first compound 1.265 µM)	relative viability ([2]; first compound 4 µM)	relative viability ([3]; first compound 0.4 µM)	relative viability ([3]; first compound 1.265 µM)	relative viability ([3]; first compound 4 µM)	relative viability ([3]; first compound 12.65 µM)	relative viability ([3]; first compound 40 µM)	relative viability ([4]; first compound 0.04 µM)	relative viability ([4]; first compound 0.1265 µM)	relative viability ([4]; first compound 0.4 µM)	relative viability ([4]; first compound 1.265 µM)	relative viability ([4]; first compound 4 µM)
NCI-H2009	0.903	0.961	0.454	0.826	0.987	0.7	0.712	0.705	0.675	0.625	0.763	0.683	0.838	0.743	0.672	0.373	0.37	0.431	0.328	0.345
NCI-H2023	0.703	0.812	0.537	0.859	0.758	0.377	0.359	0.309	0.298	0.153	0.555	0.443	0.523	0.413	0.435	0.206	0.21	0.225	0.135	0.138
NCI-H2085	0.818	0.797	0.725	0.753	0.724	0.813	0.797	0.77	0.708	0.574	0.818	0.771	0.766	0.824	0.855	0.541	0.582	0.485	0.324	0.374
NCI-H2087	1	1.13	0.653	0.946	1.03	0.282	0.237	0.308	0.202	0.2	0.748	0.684		0.573	0.553	0.285	0.23	0.251	0.145	0.135
NCI-H2126	0.828	0.775	0.623	0.794	0.856	0.867	0.874	0.786	0.832	0.79	0.981	0.922	0.904	0.921	0.934	0.623	0.583	0.612	0.451	0.519
NCI-H2170	0.265	0.272	0.268	0.28	0.253	0.662	0.732	0.7	0.276	0.685	0.596	0.581	0.647	0.585	0.664	0.419	0.497	0.437	0.417	0.361
NCI-H2347	1.06	0.943	0.482	0.882	0.983	0.623	0.602	0.572	0.588	0.399	0.719	0.622		0.605	0.621	0.638	0.615	0.583	0.474	0.527
NCI-H2405	1.01			1.03	1.09	0.7	0.704	0.734	0.659	0.662	0.899	0.909		0.769	0.882	0.707	0.766	0.756	0.674	0.625
